“Also recorded” adds a separate entry of the source.
What was measured:
[1] = system: rats subjected to the CUMS protocol; experiment: Sucrose preference test (anhedonia) in rats subjected to CUMS; type: in vivo, rat; conditions: treated during CUMS
Protocol: The following stimuli were administered each week in a random order: two periods (7 h and 17 h) of 45° cage tilt; soaked cage for 17 h; food deprivation (24 h) and water deprivation (12 h), twice a week; paired housing (17 h); overnight illumination during the dark phase, twice a week; noise (85 dB) in the room for 5 h, twice a week; flashing light (60 flashes/min) for 6 h, three times a week (AbdAlla et al., Biomed. Res. Int. 2015:917156 (2015); El-faramawy et al., Pharmacol. Biochem. Behav. 91, 339-344 (2009)). The sucrose preference test (2% sucrose in water) was done immediately after a period of food and water deprivation.
Symptoms of depression and anhedonia induced by the CUMS protocol as a typical model of depression were determined by the sucrose preference test. For the sucrose preference test, rats (or mice) were trained to consume a sucrose solution (2%), which was put in the cage with a bottle of water. The sucrose consumption was determined at baseline for two weeks before the CUMS protocol (1 test per week, for 1 h, at 9-10 a.m.), and after 4 weeks of CUMS immediately after a period of food (24 h) and water (12 h) deprivation. The ratio of the sucrose-to-water consumption was determined. […] Similarly, the treatment effect of illustrative compounds on prevention of symptoms of depression was assessed by the sucrose preference test. […]

female B6 mice = experiment: Aging-induced decrease in fertility in female B6 mice; type: in vivo, mouse; conditions: 8 mg/kg/d in drinking water from 3 to 21 months of age, vs untreated controls
Protocol: (A,B) Treatment of B6 mice with Compound-1 (A) and Compound-1F (B) at a daily dose of 8 mg/kg/d in drinking water was started at an age of 3 months and continued until the end of the observation period at 21 months. The age of the male breeder(s) was <10 months. The number of offspring per month is given (±s.d.; n=5; p=0.0167 for Compound-1, and p=0.0032 for Compound-1F compared to untreated controls; unpaired, two-tailed Student's t-test).

Tg2576 AD mice = experiment: Hippocampal neuronal cell bodies by direct binding assay with [125I]-labeled anti-NeuN antibody, Tg2576 mice subjected to CUMS; type: in vivo, mouse; conditions: 15-month-old Tg2576 mice, 3 months of CUMS with treatment, vs untreated stressed controls
Text: For a genetic model of familial AD (FAD), Tg2576 mice (Taconic Biosciences, Rensselaer, N.Y., USA) were used with neuron-specific overexpression of human APPSwe, i.e the Swedish mutation of APP695 isolated from a Swedish family with FAD featuring the double mutation K670N/M671L (Hsiao et al., Science 274, 99-103 (1996)). As a genetic model of tauopathy, the Tg-TauP301L mice (Model 2508, Taconic Biosciences, Rensselaer, N.Y., USA) with neuron-specific expression of the most common FTDP-17 (frontotemporal dementia and parkinsonism linked to chromosome 17) mutation (Lewis et al., Nature Genetics 25, 402-405 (2000)) were used. […]
Neuronal cell loss and hyperphosphorylated PHF Tau were determined in hippocampi of 15 months-old Tg2576 mice, which were treated without or with Compound-1 and Compound-4 for three months during the neurodegeneration-enhancing CUMS (chronic unpredictable mild stress) protocol. Neuronal cell loss was determined with crude homogenates of dissected hippocampi by direct binding assay with the neuron-specific [125]-labeled anti-NeuN antibody (MAB377, clone A60, EMD Millipore, Merck KGaA, Darmstadt, Germany). Similarly, the neuronal cell loss-causing PHF tau hyperphosphorylation was quantified with [125]-labeled AT8 antibody. […]

SMILES: O=C(C1=C(O)C(c2ccccc2)N(c2ccc3c(c2)OCO3)C1=O)C1CC1 (stereo not drawn) [Compound-1, 1-(1,3-benzodioxol-5-yl)-4-(cyclopropane-carbonyl)-3-hydroxy-2-phenyl-2H-pyrrol-5-one]
- sucrose consumption in sucrose preference test ([1]; 16-month-old rats, 4 weeks CUMS, vs non-stressed control group): not significantly different from the non-stressed control group
- CUMS-induced anhedonia in sucrose preference test ([1]; young rats (aged 4 months)): prevented the development of CUMS-induced anhedonia and symptoms of depression
- female fertility (number of offspring per month) (female B6 mice): retarded aging-induced decrease in fertility
- hippocampal neuronal loss (anti-NeuN antibody binding) (Tg2576 AD mice): retarded hippocampal neuronal loss; also recorded: significantly retarded the loss of hippocampal neurons

SMILES: O=C(C1=C(O)C(c2ccc(F)cc2)N(c2ccc3c(c2)OCO3)C1=O)C1CC1 (stereo not drawn) [Compound-1F, 1-(1,3-Benzodioxol-5-yl)-4-(cyclopropanecarbonyl)-2-(4-fluorophenyl)-3-hydroxy-2H-pyrrol-5-one]
- female fertility (number of offspring per month) (female B6 mice): retarded aging-induced decrease in fertility
- hippocampal neuronal loss (anti-NeuN antibody binding) (Tg2576 AD mice): retarded hippocampal neuronal loss
